Measured values from publication PMC5642494 (Oncotarget, 2017).

Test system: HR+ and HR- breast cancer cell lines
Test: Proliferation after washouts (EdU Click-iT) in breast cancer lines
Type: cell-based, human
Description: Images were SA-β-galactosidase immunocytochemical labeling taken by fluorescent microscopy using a Leica DMiL. […] SA-β-gal Cell samples were lysed after treatment with expression was determined using the Senescence Cells 100 μL lysis buffer and transferred to a 96-well plate. Histochemical Staining Kit (Sigma, CS0030) following 30 μL of each sample were transferred into deep well the vendor 's manual. Images were taken at 100x by bright plates using TECAN-EVO Workstation. Samples were field microscopy (Leica DMiL). treated for derivatization of the metabolites of interest and internal standards. For this, 50 μL of derivatization reagent Proliferation studies after washouts (EdU Click- and 80 μL of internal standard (IS, SupplementaryTable iT®) 1), were added with multidrop, plates were vortexed for 5 mins and let sit for one hour at 4 °C. The IS used were the Cells were plated onto poly-D-lysine D or 13C-labeled commercial analogues of nine of the ten coated 96-well plates at a density of 2,000-6,000 metabolites, prepared at 25 μM in water (Supplementary viable cells per well, and treated with abemaciblib or Table 1). The derivatization reagents (from Sigma), […] washout schedule shown on Supplementary Figure 1A. […] EdU Samples were analyzed by LC-MS/MS under the detection was performed using the Click-iT High Content conditions described below. […] Cell images were captured using a Cellomics Arrayscan VTI and analyzed Analysis of the derivatized-extracted samples with the Target Activation bio-application V.3 reading in 4 was carried out with an Agilent 6460 Triple Quadrupole channels at a magnification of 10X. […] The software relative levels and sub-cellular localization of EdU were for data collection and treatment was Agilent Masshunter determined through the respective intensities and locations Workstation. Mobile phases for chromatography were: of Alexa-488 fluorescence. mobile phase A: formic acid (5 mM) and ammonium formate (10 mM) in water; mobile phase B: acetonitrile. […]

CCN1CCN(Cc2ccc(Nc3ncc(F)c(-c4cc(F)c5nc(C)n(C(C)C)c5c4)n3)nc2)CC1 [abemaciclib, Abemaciclib]
DNA synthesis / proliferation as measured by EdU incorporation (HR+ versus HR- breast cancer cell lines, exposure 2 hr, 24 hr or 72 hrs followed by washout): preferentially reduced in HR+ compared to HR- cell lines | sensitivity of HR- cell lines with RB1 mutation or loss (EdU incorporation) (MDA-MB-468, BT549, BT20, HCC1937, HCC70): insensitive
